Active and inactive are the calls of the source.
What was measured:
[1] = target: T1, Polyadenylate-binding protein 1 (Homo sapiens, UniProt P11940); experiment: PABP1 MLLE–PAM2 interaction inhibitors, dose response, miRNA deadenylation inhibitor project, biochemical, fluorescence polarization, Cy5-PAM2 peptide, secondary (AID 602260); type: functional; settings: read-out: IC50_Mean
[2] = target: T1, Polyadenylate-binding protein 1; experiment: PABP1 MLLE–PAM2 binding inhibitor potency, dose response, biochemical, fluorescence polarization, FITC-PAM2 peptide (AID 602259); type: functional; settings: read-out: IC50_Mean
cells [3] = type: functional, cell-based
cells [4] = type: functional, cell-based; remark: listed apart in the source
Coagulation factor XII = target: T2, Coagulation factor XII (Homo sapiens, UniProt P00748); type: functional;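 further: activated factor XIIa alpha cleaving a fluorogenic AMC peptide substrate; inhibitor potency from loss of enzyme activity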
T2 sequence (P00748 whole entry): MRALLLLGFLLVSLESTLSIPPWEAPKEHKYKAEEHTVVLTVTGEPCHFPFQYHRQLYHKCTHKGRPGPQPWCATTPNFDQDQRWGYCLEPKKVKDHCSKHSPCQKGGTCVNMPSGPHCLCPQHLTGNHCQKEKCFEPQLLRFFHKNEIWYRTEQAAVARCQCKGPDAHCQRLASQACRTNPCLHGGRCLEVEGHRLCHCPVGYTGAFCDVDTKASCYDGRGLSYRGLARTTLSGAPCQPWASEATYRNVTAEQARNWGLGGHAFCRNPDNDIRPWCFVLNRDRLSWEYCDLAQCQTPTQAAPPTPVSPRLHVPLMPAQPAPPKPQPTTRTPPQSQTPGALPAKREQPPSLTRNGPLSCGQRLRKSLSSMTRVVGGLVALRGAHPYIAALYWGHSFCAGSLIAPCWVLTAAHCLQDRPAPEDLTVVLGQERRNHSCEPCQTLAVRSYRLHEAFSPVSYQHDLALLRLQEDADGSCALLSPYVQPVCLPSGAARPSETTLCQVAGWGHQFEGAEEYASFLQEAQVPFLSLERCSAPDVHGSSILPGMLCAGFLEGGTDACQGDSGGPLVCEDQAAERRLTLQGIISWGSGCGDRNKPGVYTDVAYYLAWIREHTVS

[5] = target: T3, Heat shock factor protein 1 (Mus musculus, UniProt P38532); experiment: HSF1 potentiators in luciferase reporter cells, confirmation, cell-based, NIH3T3, luminescence, dose retest (AID 435004); type: functional;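 further: stress induced by proteasome inhibitor MG132 added 30 min after compound; luciferase reporter driven by HSF1 response element in NIH3T3 cells; actives raise luminescence as potentiators of the MG132 stress response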
T3 sequence (P38532 whole entry): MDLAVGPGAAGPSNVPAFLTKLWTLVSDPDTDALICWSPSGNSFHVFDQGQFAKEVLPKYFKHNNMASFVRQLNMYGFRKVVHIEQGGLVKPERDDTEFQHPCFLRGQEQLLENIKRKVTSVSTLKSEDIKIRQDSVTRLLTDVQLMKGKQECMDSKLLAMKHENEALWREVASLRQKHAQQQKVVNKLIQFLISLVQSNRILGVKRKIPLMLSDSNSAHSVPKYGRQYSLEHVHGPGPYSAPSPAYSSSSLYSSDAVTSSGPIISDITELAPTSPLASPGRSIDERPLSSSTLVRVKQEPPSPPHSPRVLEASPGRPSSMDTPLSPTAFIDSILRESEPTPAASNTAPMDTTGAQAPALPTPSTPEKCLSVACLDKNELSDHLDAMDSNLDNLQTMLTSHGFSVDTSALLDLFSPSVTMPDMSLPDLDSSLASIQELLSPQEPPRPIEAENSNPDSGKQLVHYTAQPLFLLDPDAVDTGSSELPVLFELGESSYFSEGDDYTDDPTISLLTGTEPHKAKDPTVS

[6] = off-target signal loss in HeLa-CEM21 co-culture – HeLa F-luc CTL cells, cherry-picked, counter-screen for HIV-1 Env fusion inhibitor project, dose response (AID 652040); type: functional, cell-based;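 further: potency for signal decrease marking cytotoxic or nonspecific inhibition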
[7] = inhibitors of clade B AD8 Env fusion, dose response, cell-based, cherry-pick (AID 652062); type: functional;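 further: luciferase signal from cell-cell fusion driven by HIV-1 clade B AD8 Env; potency is for inhibitors of fusion seen as a drop in luminescence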
[8] = target: T4, RNA-binding protein pos-1 (Caenorhabditis elegans, UniProt G5EF15); experiment: inhibitors of POS-1/mex-3 RNA binding, dose response, biochemical, fluorescence polarization (AID 1964);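 further: purified POS-1 fused to maltose binding protein made in E. coli; potency of compounds blocking POS-1 binding to fluorescent RNA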
T4 sequence (G5EF15 whole entry): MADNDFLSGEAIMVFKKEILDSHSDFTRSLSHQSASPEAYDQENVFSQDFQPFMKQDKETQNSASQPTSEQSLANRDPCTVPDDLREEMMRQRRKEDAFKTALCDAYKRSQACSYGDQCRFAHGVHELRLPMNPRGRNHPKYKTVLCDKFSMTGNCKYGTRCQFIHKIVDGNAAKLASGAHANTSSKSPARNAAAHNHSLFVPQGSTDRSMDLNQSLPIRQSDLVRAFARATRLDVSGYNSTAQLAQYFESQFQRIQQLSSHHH

[9] = target: T5, Zinc finger protein mex-5 (Caenorhabditis elegans, UniProt Q9XUB2); experiment: MEX-5/TCR-2 RNA interaction inhibitors, dose response, biochemical, C. elegans, fluorescence polarization (AID 1960)
T5 sequence (Q9XUB2 whole entry): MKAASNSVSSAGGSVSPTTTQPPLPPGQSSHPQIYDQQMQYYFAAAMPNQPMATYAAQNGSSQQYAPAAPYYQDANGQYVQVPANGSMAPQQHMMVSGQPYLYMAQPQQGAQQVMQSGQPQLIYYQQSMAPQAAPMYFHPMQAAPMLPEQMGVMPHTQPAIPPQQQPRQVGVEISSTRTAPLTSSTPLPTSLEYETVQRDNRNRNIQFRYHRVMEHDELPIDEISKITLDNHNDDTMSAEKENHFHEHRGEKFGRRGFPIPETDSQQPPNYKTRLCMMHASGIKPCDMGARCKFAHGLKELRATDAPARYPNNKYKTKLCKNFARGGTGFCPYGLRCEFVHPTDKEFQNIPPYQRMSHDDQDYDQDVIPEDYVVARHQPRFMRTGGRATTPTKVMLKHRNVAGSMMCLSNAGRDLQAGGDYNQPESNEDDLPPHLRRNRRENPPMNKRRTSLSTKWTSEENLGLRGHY

[10] = target: Luciferin 4-monooxygenase (Photinus pyralis, UniProt P08659); experiment: firefly luciferase enzyme inhibitors, dose response, biochemical, luminescence (AID 1891)
Chain of Luciferin 4-monooxygenase (P08659 whole entry): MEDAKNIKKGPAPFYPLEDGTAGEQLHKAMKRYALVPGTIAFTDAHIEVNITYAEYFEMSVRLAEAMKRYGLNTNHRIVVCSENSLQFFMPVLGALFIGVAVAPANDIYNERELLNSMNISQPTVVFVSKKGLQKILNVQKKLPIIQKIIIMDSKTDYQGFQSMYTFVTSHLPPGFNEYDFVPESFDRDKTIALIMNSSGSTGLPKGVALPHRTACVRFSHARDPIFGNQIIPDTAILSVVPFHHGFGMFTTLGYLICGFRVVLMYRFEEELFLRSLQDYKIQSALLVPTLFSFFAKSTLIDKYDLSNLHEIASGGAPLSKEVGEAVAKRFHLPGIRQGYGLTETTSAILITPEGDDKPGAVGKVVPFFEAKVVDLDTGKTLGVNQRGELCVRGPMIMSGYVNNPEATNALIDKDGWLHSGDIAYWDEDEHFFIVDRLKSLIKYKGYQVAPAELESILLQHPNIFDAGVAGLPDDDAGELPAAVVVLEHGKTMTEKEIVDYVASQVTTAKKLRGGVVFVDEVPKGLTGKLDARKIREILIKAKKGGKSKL

[11] = Luminescence Cell-Based Dose Confirmation HTS to Identify Inhibitors of Platelet Dense Granule Release. [Related pubchem assays: 1663 (Primary HTS), 1678 (Summary of Project)]; type: functional
HEK293 = experiment: inhibitors of LMP1-driven NF-kB reporter, dose response, cell-based, HEK293, luciferase, cherry-pick (AID 588343); type: functional; settings: Homo sapiens

T1 sequence (P11940 whole entry): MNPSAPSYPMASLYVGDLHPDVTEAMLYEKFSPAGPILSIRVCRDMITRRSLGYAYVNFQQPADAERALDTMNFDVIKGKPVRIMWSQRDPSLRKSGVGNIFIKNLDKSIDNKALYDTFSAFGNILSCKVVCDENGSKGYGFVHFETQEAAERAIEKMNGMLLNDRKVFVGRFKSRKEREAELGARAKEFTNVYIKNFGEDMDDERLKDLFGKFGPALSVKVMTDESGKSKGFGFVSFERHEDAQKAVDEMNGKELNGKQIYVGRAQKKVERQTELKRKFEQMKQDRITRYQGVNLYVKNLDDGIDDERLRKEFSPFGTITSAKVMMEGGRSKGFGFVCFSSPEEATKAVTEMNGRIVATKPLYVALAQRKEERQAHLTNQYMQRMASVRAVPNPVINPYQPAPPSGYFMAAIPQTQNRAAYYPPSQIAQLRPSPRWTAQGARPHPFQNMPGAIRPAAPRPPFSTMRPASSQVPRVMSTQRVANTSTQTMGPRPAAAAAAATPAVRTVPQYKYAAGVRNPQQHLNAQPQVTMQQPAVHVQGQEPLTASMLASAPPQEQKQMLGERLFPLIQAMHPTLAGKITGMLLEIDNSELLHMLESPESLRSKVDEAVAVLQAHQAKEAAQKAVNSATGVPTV

For `C=CCn1c(N)c(C(=O)OCC)sc1=S`, the IC50 [1] was > 66 µM (inactive) and the IC50 [2] was > 66 µM (inactive).
In the case of `CC12CC3(C)CC(C)(C1)CC(C(=O)NCCc1ccc(S(N)(=O)=O)cc1)(C2)C3`, the EC50 (cells [3]) is reported as > 350 µM (not active) and the EC50 (cells [4]) is reported as > 350 µM (not active).
For `Cc1ccc(C2(C)NC(=O)N(CC(=O)Nc3ccccc3N3CCCC3)C2=O)cc1` (configuration not stated), the EC50 (cells [3]) was > 350 µM (not active) and the EC50 (cells [4]) was > 350 µM (not active).
With `COCCNC(=O)C(=O)NCC1OCCN1S(=O)(=O)c1cc(F)ccc1F` (configuration not stated) the EC50 (cells [3]) was > 350 µM (not active) and the EC50 (cells [4]) was > 350 µM (not active).
In the case of `O=S(=O)(NC(=S)NC1CCCCC1)c1cccs1`, the IC50 [1] is reported as > 66 µM (inactive) and the IC50 [2] is reported as > 66 µM (inactive).
In the case of `Cc1ccc(OCC(=O)Nc2nnn(C)n2)c(C)c1`, the IC50 (Coagulation factor XII) is reported as > 50 µM (inactive).
For `COc1ccccc1C(N)=S`, the IC50 [1] was > 66 µM (inactive) and the IC50 [2] was > 66 µM (inactive).
For `CC(C)N(Cc1ccccc1)C(S)=NC1CCCCC1`, the IC50 (Coagulation factor XII) was > 50 µM (inactive).
With `COc1cc(-c2cc(=O)c3ccc(O)cc3o2)cc(OC)c1OC` the IC50 [1] was > 66 µM (inactive) and the IC50 [2] was 33.7 µM (inactive).
In the case of `O=C1CC(Nc2ccccc2)C(=O)N1Cc1ccccc1` (configuration not stated), the EC50 (cells [3]) is reported as > 350 µM (not active) and the EC50 (cells [4]) is reported as > 350 µM (not active).
With `COCc1cc(O)nc(SCCS(=O)(=O)c2ccc(Cl)cc2Cl)n1` the EC50 [5] was > 260 µM (inactive), the IC50 [1] was > 66 µM (inactive) and the IC50 [2] was > 66 µM (inactive).
For `Cc1cccc(C)c1NC(=O)CCCSc1nnc(-c2ccc(Cl)cc2)n1-c1ccccc1`, the AC50 [6] was 48.8 µM (active) and the AC50 [7] was 10.5 µM (active).
With `CCOC(=O)c1cccc(NC(=O)CSc2nnc(-c3ccoc3C)n2CCOC)c1` the IC50 (Coagulation factor XII) was > 50 µM (inactive).
In the case of `CCN(CC)C(=O)c1cc2c(=O)c3cc(Cl)ccc3oc2nc1C`, the EC50 [8] is reported as > 300 µM (not active) and the EC50 [9] is reported as > 300 µM (not active).
For `Cc1ccc2oc(NC(=O)N3CCOCC3)cc(=O)c2c1`, the IC50 (Coagulation factor XII) was > 50 µM (inactive).
In the case of `CC1CN(S(=O)(=O)c2cccc(C(=O)N(CCc3ccccc3)Cc3ccccc3)c2)CC(C)O1` (configuration not stated), the EC50 (cells [3]) is reported as > 350 µM (not active) and the EC50 (cells [4]) is reported as > 350 µM (not active).
For `Oc1nc(CN2CC=C(c3ccccc3)CC2)nc2cc(C(F)(F)F)ccc12`, the EC50 [10] was > 112 µM (not active), the EC50 [11] was > 112 µM (not active) and the AC50 (HEK293) was > 350 µM (inactive).

From ChEMBL document CHEMBL1201862, “PubChem BioAssay data set” (2004)
